In patent publication US20080318938A1, “METHODS FOR TREATING ABERRANT CELL PROLIFERATION DISORDERS” (priority 2007, published 2008):

How the values were obtained:
[1] = system: 5-HT1B 5-hydroxytryptamine (serotonin) receptor 1B; test: Receptor binding
[2] = system: κ-opioid (KOP) opioid receptor; test: Receptor binding
[3] = system: BZD (peripheral) peripheral Benzodiazepine receptor; test: Receptor binding
HOP-92 = test: Inhibition of cell proliferation (MTT); type: cell-based, human; conditions: HOP-92, Non Small Cell Lung
Method: (§1) Inhibition of cell proliferation is determined in human tumor cell lines. Innoculation density and doubling times for specific cell lines are listed at World Wide Web URL “dtp.nci.nih.gov/docs/misc/common_files/cell_list.html.”
(§2) • 1. Plate adherent cells the day before starting the experiment in 180 μl growth media (see list hereafter). • 2. Day of experiment, count and plate suspension cells in 180 μl growth media (see list on next page). • 3. Make 10× Compound, vehicle, and chemotherapeutic cocktail • a. Compound (1× to 10×) • i. 10 μM Compound to 100 μM • ii. 3 μM Compound to 30 μM • iii. 1 μM Compound to 10 μM • iv. 0.3 μM Compound to 3 μM • v. 0.1 μM Compound to 1 μM • b. Vehicle • i. PBS, equivalent to the volume used for 10 μM Compound (1× is ˜0.06% PBS) • c. Chemotherapeutic cocktail (1× to 10×): • i. 1 μM Velcade to 10 μM • ii. 100 μM Etoposide to 1 mM • iii. 20 μM Taxol to 200 μM • 4. Add 20 μl of the 10× compound/vehicle/chemotherapeutic cocktail to cells. • 5. Incubate at 37° C., 5% CO2 for 48 hours. • 6. Aspirate media. For suspension cells, spin plate at 1500 RPM for 10 minutes. Use a multichannel pipettor to slowly remove media. • 7. Add 200 μl of Thiazolyl Blue Tetrazolium Bromide (MTT) to each well: 0.863 mg/ml MTT in growth media.
(§3) Proliferation of several cancer cells was inhibited by compound TA1-1B (which is a particular mixture of the isomers represented by TA1-1A), as shown in the following table (Table 1). The value EC50 is the amount of Compound TA1-1B that results in 50% inhibition of proliferation of the indicated cell type.

CCRF-CEM = test: Inhibition of cell proliferation (MTT); type: cell-based, human; conditions: Leukemia
Method: as §1, §2, §3

SR = test: Inhibition of cell proliferation (MTT); type: cell-based, human; conditions: Leukemia
Method: as §1, §2, §3

M2 Muscarinic receptor = M2 Muscarinic receptor (Homo sapiens, UniProt P08172); test: Receptor binding
Sequence of M2 Muscarinic receptor (P08172 whole entry): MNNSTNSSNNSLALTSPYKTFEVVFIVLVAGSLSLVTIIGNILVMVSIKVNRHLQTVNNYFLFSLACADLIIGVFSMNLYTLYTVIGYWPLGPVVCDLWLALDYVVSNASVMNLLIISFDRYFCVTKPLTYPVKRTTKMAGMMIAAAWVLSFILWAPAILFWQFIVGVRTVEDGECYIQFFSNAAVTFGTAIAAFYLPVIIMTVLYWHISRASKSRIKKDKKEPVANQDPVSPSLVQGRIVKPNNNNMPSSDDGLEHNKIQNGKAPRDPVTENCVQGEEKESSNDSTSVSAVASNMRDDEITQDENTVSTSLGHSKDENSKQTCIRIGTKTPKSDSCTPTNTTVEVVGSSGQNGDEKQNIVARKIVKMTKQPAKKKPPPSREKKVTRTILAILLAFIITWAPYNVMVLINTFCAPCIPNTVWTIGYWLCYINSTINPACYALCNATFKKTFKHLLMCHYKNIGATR

bone marrow cells (BMCs) = test: RNA synthesis and cell viability of bone marrow cells from treated rats; type: in vivo; conditions: 10 mg/kg daily for 5 days, BMCs isolated 24 hours after last dose
Method: Rats were treated with 10 milligrams per kilogram of Compound TA1-1B daily for five (5) days. Twenty-four (24) hours after the last dose the bone marrow was isolated, and bone marrow cells (BMCs) were tested for RNA synthesis activity and cell viability
The following process was utilized to measure total RNA synthesis. For animals treated with compound TA1-1B, BMCs were isolated and plated overnight at 100,000 cells per mL. Next day cells were incubated for one hour with 5 μCi of [^3H]-uridine. To measure total RNA synthesis, total RNA from treated cells was isolated with a RNease kit (QIAGEN), levels of total RNA were assessed with Ribogreen reagent (Invitrogen) and the newly synthesized tritiated RNA was measured in a scintillation Counter (Perkin Elmer) in a tritium channel.
The following process was utilized to measure cell viability, which involves the use of an Alamar Blue dye. Cells are counted using a hemocytometer, and 4,000-5,000 cells (per well) in 100 microliter of medium are seeded into wells 96-well plate. […] Fluorescence is recorded at an excitation wavelength of 544 nm and emission wavelength of 590 nm using a microplate reader. Fluorescence of […] dye is detected and effects of drug treatment on BMC viablity is determined.

[4] = Tissue distribution in rats (in vivo pharmacokinetic study); design: species or system Sprague Dawley rats
Method: Five groups (three animals per group) of male Sprague Dawley rats were assigned for in vivo pharmacokinetic study. • Group-1 animals were dosed intravenously with compound TA1-1B at 7.5 mg/kg and after 2 hr post-dose animals were terminated and whole blood, plasma, brain, bone marrow and adrenal gland collected. • Group-2 animals were dosed intravenously with compound TA1-1B at 7.5 mg/kg for five consecutive days. After 2 hr of the last dose (98 hr) animals were terminated and whole blood, plasma, brain, bone marrow and adrenal gland collected. • Group-3 animals were dosed intravenously with compound TA1-1B at 7.5 mg/kg for five consecutive days. After 26 hr of the last dose (122 hr) animals were terminated and whole blood, plasma, brain, bone marrow and adrenal gland collected. • Group-4 animals were dosed intravenously with compound TA1-1B at 7.5 mg/kg for five consecutive days. After 50 hr of the last dose (146 hr) animals were terminated and whole blood, plasma, brain, bone marrow and adrenal gland collected. • Group-5 animals were dosed intravenously with vehicle, terminated and whole blood, plasma, brain, bone marrow and adrenal gland collected. Tissues obtained from this group of animals were used for corresponding matrix preparation in subsequent bioanalysis.
After administration the compound TA1-1B quickly reaches those tissues (after 2 hr) and subsequently gets cleared.

SF-539 = test: Inhibition of cell proliferation (MTT); type: cell-based; conditions: Homo sapiens; SF-539, CNS; 48 hours
Summary of the method: (§4)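 MTT read-out after 48 h treatment at 37 °C; EC50 = compound amount producing 50% inhibition of proliferation. Final compound levels 0.1–10 μM; vehicle PBS; chemotherapeutic cocktail (Velcade 1 μM, etoposide 100 μM, Taxol 20 μM) as comparator.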

HT = test: Inhibition of cell proliferation (MTT); type: cell-based; conditions: Homo sapiens, Lymphoma, 48 hours
Summary of the method: as §4

Namalwa = test: Inhibition of cell proliferation (MTT); type: cell-based; conditions: Homo sapiens, Lymphoma, 48 hours
Summary of the method: as §4

Ku-812 = test: Inhibition of cell proliferation (MTT); type: cell-based; conditions: Homo sapiens, KU812; Ku-812, Leukemia; 48 hours
Summary of the method: as §4

Neurokinin NK2 receptor = Neurokinin NK2 receptor (Homo sapiens, UniProt P21452); test: Receptor binding
Sequence of Neurokinin NK2 receptor (P21452 whole entry): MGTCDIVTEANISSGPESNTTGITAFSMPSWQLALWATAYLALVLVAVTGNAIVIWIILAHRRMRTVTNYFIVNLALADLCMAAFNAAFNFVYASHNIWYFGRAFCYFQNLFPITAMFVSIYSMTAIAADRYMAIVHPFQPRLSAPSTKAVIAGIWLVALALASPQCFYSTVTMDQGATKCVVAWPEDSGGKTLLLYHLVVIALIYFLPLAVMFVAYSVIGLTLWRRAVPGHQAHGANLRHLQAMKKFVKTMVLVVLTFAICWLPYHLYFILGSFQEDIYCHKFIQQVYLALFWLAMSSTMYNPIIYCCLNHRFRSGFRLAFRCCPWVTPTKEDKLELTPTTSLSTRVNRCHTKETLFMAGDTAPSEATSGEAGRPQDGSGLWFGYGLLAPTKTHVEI

H2-receptor = H2-receptor (Homo sapiens, UniProt P25021); test: Receptor binding
Sequence of H2-receptor (P25021 whole entry): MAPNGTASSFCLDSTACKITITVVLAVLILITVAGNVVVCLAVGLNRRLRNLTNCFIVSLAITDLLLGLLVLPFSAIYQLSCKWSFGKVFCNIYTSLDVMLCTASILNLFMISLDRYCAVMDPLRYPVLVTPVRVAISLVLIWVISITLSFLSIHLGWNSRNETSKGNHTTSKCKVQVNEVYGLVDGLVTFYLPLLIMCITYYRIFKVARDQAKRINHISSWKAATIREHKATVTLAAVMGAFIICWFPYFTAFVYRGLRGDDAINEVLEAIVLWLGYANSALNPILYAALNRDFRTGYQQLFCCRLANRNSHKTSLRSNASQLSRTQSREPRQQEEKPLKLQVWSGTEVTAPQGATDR

M1 Muscarinic receptor = M1 Muscarinic receptor (Homo sapiens, UniProt P11229); test: Receptor binding
Sequence of M1 Muscarinic receptor (P11229 whole entry): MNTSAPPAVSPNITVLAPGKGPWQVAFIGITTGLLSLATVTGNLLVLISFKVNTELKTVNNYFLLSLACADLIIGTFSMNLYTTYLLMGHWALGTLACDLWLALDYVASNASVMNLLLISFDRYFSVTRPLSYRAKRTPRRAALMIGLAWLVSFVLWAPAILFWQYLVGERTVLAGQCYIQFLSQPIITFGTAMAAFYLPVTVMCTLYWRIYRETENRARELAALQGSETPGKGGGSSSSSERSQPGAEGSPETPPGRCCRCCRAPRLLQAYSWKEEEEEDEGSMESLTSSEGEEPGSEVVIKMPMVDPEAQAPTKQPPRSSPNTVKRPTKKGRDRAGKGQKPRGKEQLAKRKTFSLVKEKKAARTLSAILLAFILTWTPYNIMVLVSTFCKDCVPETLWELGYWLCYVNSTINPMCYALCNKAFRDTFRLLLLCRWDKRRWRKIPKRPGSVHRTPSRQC

[5] = 7.5 mg/kg intravenously (FIG. 3)
[6] = 7.5 mg/kg intravenously, time point not stated, unit from FIG. 2 legend

With `CN1CCC[C@H]1CCNC(=O)c1cn2c3c(c(N4CCC(c5cnccn5)C4)c(F)cc3c1=O)Oc1cc3ccccc3cc1-2` (stereo partly drawn) [TA1-1B] the “% inhibition @ 1 uM” value [1] was 49%, the “% inhibition @ 1 uM” value [2] was 52% and the “% inhibition @ 1 uM” value [3] was 65%. It also gave an EC50 (HOP-92; 48 hours) of 1960 nM, an EC50 (HOP-92; Homo sapiens, HOP-92, 48 h) of 1800 nM and an EC50 (CCRF-CEM; Homo sapiens, 48 h) of 630 nM. For the same molecule, the EC50 (CCRF-CEM; 48 hours) was 1220 nM, the EC50 (SR; Homo sapiens, 48 h) was 914 nM and the EC50 (SR; 48 hours) was 1300 nM. For the same molecule, the inhibition at 1 µM (M2 Muscarinic receptor) was 92%, the “Toxicity to bone marrow cells (RNA synthesis and cell viability)” value (bone marrow cells (BMCs)) was “not toxic” and the “Exposure in adrenal glands and bone marrow relative to other tissues” value [4, 5] was “highest exposures”. The “Retention in adrenal glands and bone marrow versus brain” value [4, 5] was “retains longer”, the “Elimination from rat brain tissue” value ([4]; 7.5 mg/kg intravenously QDx5, over 48 hr post-dose (FIG. 2)) was “almost completely eliminates” and the “Concentration in brain tissue” value [4, 6] was 1600 nM. For the same molecule, the Concentration in plasma [4, 6] was 200 nM, the “Concentration in whole blood” value [4, 6] was 500 nM and the EC50 (SF-539) was 1110 nM. The EC50 (HT) was 2440 nM, the EC50 (Namalwa) was 1420 nM and the EC50 (Ku-812) was 4190 nM. It also gave an inhibition at 1 µM (Neurokinin NK2 receptor) of 107%, an inhibition at 1 µM (H2-receptor) of 48% and an inhibition at 1 µM (M1 Muscarinic receptor) of 98%.
